Data published in patent US11814368B2, “Triazine derivatives having virus replication inhibitory activity and pharmaceutical composition comprising the same” (priority 2021, dated 2023).

System: SARS-CoV-2
Test: microbe, parasite or virus in culture
Format: cell-based
Settings: for EC50: Severe acute respiratory syndrome coronavirus 2, 72 h, read-out: 50% SARS-CoV-2 infected cell death inhibitory concentration (EC50), VeroE6/TMPRSS2 cells, SARS-CoV-2, 3 days culture, CellTiter-Glo 2.0; for coronavirus replication inhibitory activity: at concentrations up to 50 µM

In the case of `Cc1nc2ccc(/N=c3\[nH]c(=O)n(C[C@H]4COC(C)(C)O4)c(=O)n3Cc3ccc(Cl)cc3)cc2s1` [Patent Document 1 Compound 1-1603], the EC50 is reported as > 50 µM and the “coronavirus replication inhibitory activity” value is reported as “did not show coronavirus replication inhibitory activity”.
For `CC(C)Oc1ccc(/N=c2\[nH]c(=O)n(Cc3ncn[nH]3)c(=O)n2Cc2ccc(Cl)cc2)cc1F` [Patent Document 1 Compound I-0679], the EC50 was > 50 µM and the “coronavirus replication inhibitory activity” value was “did not show coronavirus replication inhibitory activity”.
In the case of `COc1ncccc1Cn1c(=O)[nH]/c(=N\c2ccc(OC(C)C)c(F)c2)n(Cc2ccc(Cl)cc2)c1=O` [Patent Document 1 Compound I-0683], the EC50 is reported as > 50 µM and the “coronavirus replication inhibitory activity” value is reported as “did not show coronavirus replication inhibitory activity”.
`CC(C)Oc1ccc(/N=c2\[nH]c(=O)n(Cc3ccc[nH]c3=O)c(=O)n2Cc2ccc(Cl)cc2)cc1F` [Patent Document 1 Compound I-0685] was tested, and the EC50 was > 50 µM and the “coronavirus replication inhibitory activity” value was “did not show coronavirus replication inhibitory activity”.
In the case of `O=C(O)c1ccc(Oc2ccc(/N=c3\[nH]c(=O)n(-c4cccs4)c(=O)n3Cc3ccc(Cl)cc3)cc2)nc1` [Patent Document 2 Compound I-575], the EC50 is reported as > 50 µM and the “coronavirus replication inhibitory activity” value is reported as “did not show coronavirus replication inhibitory activity”.
With `O=C(O)c1ccc(Oc2ccc(/N=c3\[nH]c(=O)n(-c4ccon4)c(=O)n3Cc3ccc(Cl)cc3)cc2)nc1` [Patent Document 2 Compound I-580] the EC50 was > 50 µM and the “coronavirus replication inhibitory activity” value was “did not show coronavirus replication inhibitory activity”.
With `Cc1ccc(Cn2c(=O)nc(Nc3cccc(C(F)(F)F)c3)n(Cc3ccc(Cl)c(Cl)c3)c2=O)cc1` [Patent Document 3 Compound 1-066] the EC50 was > 50 µM and the “coronavirus replication inhibitory activity” value was “did not show coronavirus replication inhibitory activity”.
